Test results as given in patent US20220143045A1, “PROGESTERONE RECEPTOR ANTAGONIST DOSAGE FORM” (BAYER PHARMA AKTIENGESELLSCHAFT, priority 2013, published 2022).
Several values for one entry are separate records, joined by “and”; a condition that tells them apart may be missing. Identical values can stand only once.

Experiments:
Type in all cases: in vivo, human
healthy female subjects [1] = assay: Endometrial thickness by transvaginal ultrasound during treatment; conditions: 2 mg, 84 days, versus other dosages (FIG. 2)
Protocol: (§1) As described in example 2.
The endometrial thickness was measured in the medio-sagittal section as double-layer in millimeters using transvaginal ultrasound.

healthy female subjects [2] = assay: Return of bleeding after end of treatment (84 days); conditions: for Number of days until first bleeding after end of treatment (mean ± SD) / Number of days until first bleeding after end of treatment (min − max): PPS
Description: as §1
The first day of bleeding after the end of the treatment was marked.

healthy female subjects [3] = assay: Dose-effect of 84 days treatment: bleeding pattern (non-bleeding rate), daily self-assessment
Description: • 1. Healthy female subjects, sterilized by tubal ligation • 2. Age at screening: 18-45 years • 3. Body mass index (BMI) at screening: ≥18 and ≤32 kg/m^2 • 4. At least 3 consecutive regular menstrual cycles with a cycle length of 24-35 days before first screening examination according to the subject's history • 5. Absence of clinically relevant abnormal findings in the pre-treatment endometrial biopsy • 6. Adequate venous access (frequent blood sampling)
The subject had to start the intake of the study drugs on the first or second day of menstrual bleeding after the pre-treatment cycle. The pre-treatment cycle started on the first day of the subject's menstrual bleeding after screening examinations had shown that the subject was eligible for further participation. After the pre-treatments cycle treatment was started. The treatment period started with the first and ended with the last intake of compound 1. For each intake day the subject received one bottle containing 4 tablets. The number of tablets taken and the intake time had to be documented in the diary.
The evaluation of bleeding pattern was based on a daily self-assessment of the bleeding intensity by the subject. These assessments were categorized as defined below. The subjects were provided with an explanation of the categories in local language, and were asked to document the bleeding intensity in their diaries accordingly (one entry per day).
Administration of compound 1 occurred during 84 days (multiple doses administration).

healthy female subjects [4] = assay: Ovulation inhibition: follicle size, estradiol (E2), progesterone (P)
Description: Protocol: Randomized Study population of healthy female subjects as described in example 2 above.
Blood samples were obtained from healthy female subjects for the determination of Estradiol (E2), Progesterone (P), luteinizing hormone (LH) and follicle stimulating hormone (FSH) in serum and taken at the same time points as listed below during the pre-treatment cycle, the treatment and follow-up cycle. Transvaginal ultrasound (TVU) was used to monitor ovarian follicular growth during pretreatment (days 9 and 21), treatment (days 7, 14, 21, 28, 35, 42, 49, 56, 63, 70, 77, 84) and follow-up cycle (days 9 and 21).

[5] = 0.5 mg once daily per os, 84 days
[6] = 0.1 mg, n = 11, treatment period
[7] = 0.1 mg, n = 11, treatment period, (third category)
[8] = 0.5 mg, n = 11, treatment period
[9] = 0.5 mg, n = 11, treatment period, (third category)
[10] = 1 mg, n = 12, treatment period, (third category)
[11] = 2 mg, n = 12, treatment period, (third category)
[12] = 5 mg, n = 11, treatment period, (third category)

C[C@]12C[C@H](c3ccc(S(C)(=O)=O)cc3)C3=C4CCC(=O)C=C4CC[C@H]3[C@@H]1CC[C@@]2(O)C(F)(F)C(F)(F)F [compound 1, (11β,17β)-17-Hydroxy-11-[4-(methylsulphonyl)phenyl]-17-(pentafluoroethyl)estra-4,9-dien-3-one]
maximum thickness of the endometrium within treatment epoch (healthy female subjects [1]): lower maximum thickness of the endometrium compared to other dosages | Number of days until first bleeding after end of treatment (mean ± SD) (healthy female subjects [2]; 0.1 mg, n = 11): 12.2 ± 9.9 days | Number of days until first bleeding after end of treatment (min − max) (healthy female subjects [2]; 0.1 mg, n = 11): (3 − 35) days | Number of days until first bleeding after end of treatment (mean ± SD) (healthy female subjects [2]; 0.5 mg, n = 11): 14.8 ± 10.2 days | Number of days until first bleeding after end of treatment (min − max) (healthy female subjects [2]; 0.5 mg, n = 11): ( 1 − 28) days | Number of days until first bleeding after end of treatment (mean ± SD) (healthy female subjects [2]; 1 mg, n = 10): 20.3 ± 6.2 days | Number of days until first bleeding after end of treatment (min − max) (healthy female subjects [2]; 1 mg, n = 10): (8 − 28) days | Number of days until first bleeding after end of treatment (mean ± SD) (healthy female subjects [2]; 2 mg, n = 12): 25 days and 25.8 ± 11.1 days | Number of days until first bleeding after end of treatment (min − max) (healthy female subjects [2]; 2 mg, n = 12): (9 − 52) days | delayed return of bleeding after treatment, one subject (healthy female subjects [2]; 2 mg, single subject): about 52 days | Number of days until first bleeding after end of treatment (mean ± SD) (healthy female subjects [2]; 5 mg, n = 11): 20.9 ± 10.9 days | Number of days until first bleeding after end of treatment (min − max) (healthy female subjects [2]; 5 mg, n = 11): (1 − 38) days | number of subjects with no further bleeding during the treatment period (out of 11) (healthy female subjects [3]; [5]): 3 | subjects with no further bleeding during the treatment period (healthy female subjects [3]; [5]): 27% | number of days of bleeding during the treatment period (healthy female subjects [3]; 0.1-5 mg once daily per os, 84 days): marked and dose-dependent reduction | dosage at which 50% of dose-dependent reduction of bleeding is observed (healthy female subjects [3]; 84 days treatment, posterior of non-bleeding rate (FIG. 1)): 0.7 mg | saturation of non-bleeding rate (healthy female subjects [3]; from 2 mg up to 5 mg, 84 days): around 95% | amenorrhea (non-bleeding) (healthy female subjects [3]; healthy subjects, dosage of 2 mg): 92.5% | number of subjects with Follicle size ≤ 13 mm (healthy female subjects [4]; [6]): 1 | percentage of subjects with Follicle size ≤ 13 mm (healthy female subjects [4]; [6]): 9% | number of subjects with Follicle size > 13 mm + Estradiol > 27.2 pg/mL + Progesterone < 1.57 μg/L (healthy female subjects [4]; [7]): 10 | percentage of subjects with Follicle size > 13 mm + Estradiol > 27.2 pg/mL + Progesterone < 1.57 μg/L (healthy female subjects [4]; [7]): 91% | number of subjects with Follicle size > 13 mm + Estradiol > 27.2 pg/mL + Progesterone < 1.57 μg/L (healthy female subjects [4]; [8]): 6 | percentage of subjects with Follicle size > 13 mm + Estradiol > 27.2 pg/mL + Progesterone < 1.57 μg/L (healthy female subjects [4]; [8]): 55% | number of subjects with Follicle size > 13 mm + Estradiol > 27.2 pg/mL + Progesterone < 1.57 μg/L (healthy female subjects [4]; [9]): 5 | percentage of subjects with Follicle size > 13 mm + Estradiol > 27.2 pg/mL + Progesterone < 1.57 μg/L (healthy female subjects [4]; [9]): 45% | number of subjects with Follicle size > 13 mm + Estradiol > 27.2 pg/mL + Progesterone < 1.57 μg/L (healthy female subjects [4]; 1 mg, n = 12, treatment period): 9 | number of subjects with Follicle size ≤ 13 mm (healthy female subjects [4]; 1 mg, n = 12, treatment period): 1 | percentage of subjects with Follicle size > 13 mm + Estradiol > 27.2 pg/mL + Progesterone < 1.57 μg/L (healthy female subjects [4]; 1 mg, n = 12, treatment period): 75% | percentage of subjects with Follicle size ≤ 13 mm (healthy female subjects [4]; 1 mg, n = 12, treatment period): 8% | number of subjects with Follicle size > 13 mm + Estradiol > 27.2 pg/mL + Progesterone < 1.57 μg/L (healthy female subjects [4]; [10]): 2 | percentage of subjects with Follicle size > 13 mm + Estradiol > 27.2 pg/mL + Progesterone < 1.57 μg/L (healthy female subjects [4]; [10]): 17% | number of subjects with Follicle size > 13 mm + Estradiol > 27.2 pg/mL + Progesterone < 1.57 μg/L (healthy female subjects [4]; 2 mg, n = 12, treatment period): 11 | percentage of subjects with Follicle size > 13 mm + Estradiol > 27.2 pg/mL + Progesterone < 1.57 μg/L (healthy female subjects [4]; 2 mg, n = 12, treatment period): 92% | number of subjects with Follicle size > 13 mm + Estradiol > 27.2 pg/mL + Progesterone < 1.57 μg/L (healthy female subjects [4]; [11]): 1 | percentage of subjects with Follicle size > 13 mm + Estradiol > 27.2 pg/mL + Progesterone < 1.57 μg/L (healthy female subjects [4]; [11]): 8% | number of subjects with Follicle size > 13 mm + Estradiol > 27.2 pg/mL + Progesterone < 1.57 μg/L (healthy female subjects [4]; 5 mg, n = 11, treatment period): 9 | number of subjects with Follicle size ≤ 13 mm (healthy female subjects [4]; 5 mg, n = 11, treatment period): 1 | percentage of subjects with Follicle size > 13 mm + Estradiol > 27.2 pg/mL + Progesterone < 1.57 μg/L (healthy female subjects [4]; 5 mg, n = 11, treatment period): 82% | percentage of subjects with Follicle size ≤ 13 mm (healthy female subjects [4]; 5 mg, n = 11, treatment period): 9% | number of subjects with Follicle size > 13 mm + Estradiol > 27.2 pg/mL + Progesterone < 1.57 μg/L (healthy female subjects [4]; [12]): 1 | percentage of subjects with Follicle size > 13 mm + Estradiol > 27.2 pg/mL + Progesterone < 1.57 μg/L (healthy female subjects [4]; [12]): 9% | ovulation during treatment (progesterone value <1.57 μg/L) (healthy female subjects [4]; dosages ≥0.5 mg, 84 days): No ovulation occurred in most of the subjects
